Results reported in patent US4085114A, “1,2-Benzoisoxazole derivatives and the production thereof” (Shionogi & Co., Ltd., priority 1975, dated 1978).
Converted amounts (≈) assume the structure as drawn.

Assays:
[1] = system: isolated atria; assay: β-Blocking activities in the isolated atria (inhibition of positive inotropic effect of isoproterenol); assay type: cell-based, Guinea-pigs; conditions: Cavia porcellus, read-out: fifty percent inhibitory concentration on the positive inotropic effect of isoproterenol (IC50), 1. Atria
Description: (§1) Guinea-pigs of either sex, weighing between 400 - 700 g each, were killed by a sharp blow on the head. Their atria and trachea were quickly excised and freed of excess tissues.
1. β-Blocking activities in the isolated atria:
The isolated atria were mounted in a 30 ml organ bath filled with Krebs-Ringer-bicarbonate solution, which was constantly bubbled with a gas mixture of 95% oxygen and 5% carbon dioxide at 30° C. Spontaneous contractions of the atria were isometrically recorded on the polygraph (RM-150, Nihon Kohden Kogyo) by mean of a F-D pick-up (N. K. K.) and the number of contractions in one minute was recorded on the home-made pulse counter triggered by the atrial contractions.

[2] = in vivo; conditions: mouse, iv, female DS mice
[3] = system: isolated trachea; assay: β-Blocking activities in the isolated trachea (inhibition of isoproterenol-induced relaxation of tracheal chain); assay type: cell-based, Guinea-pigs; conditions: Cavia porcellus, read-out: fifty percent inhibitory concentration on the relaxation of tracheal chain by isoproterenol (IC50), 2. Trachea
Text: as §1

Row | SMILES | IC50 [1] [ng/mL] | LD50 [2] [mg/kg] | IC50 [3] [ng/mL]
1 | Cc1noc2cccc(OCC(O)CNC(C)C)c12 (centres unmarked) [3-methyl-4-(2-hydroxy-3-isopropylaminopropoxy)-1,2-benzisoxazole] | 25 (≈ 0.0946 µM) | 45 | 
2 | Cc1noc2cccc(OCC(O)CNC(C)(C)C)c12 (centres unmarked) [3-methyl-4-(2-hydroxy-3-tert-butylaminopropoxy)-1,2-benzisoxazole] | 7.9 (≈ 0.0284 µM) | 41.8 | 1.1 (≈ 0.00395 µM)
